Measured values as given in patent US20260007133A1, “HERBICIDAL COMPOSITION COMPRISING AZINE COMPOUNDS” (BASF SE, priority 2022, published 2026).
Values joined by “and” are separate entries in the source; they are usually repeats but may differ in a detail not shown here. Identical values can stand only once. Like-named read-outs stand apart in the source and are kept apart here.

Experiments:
Format in all cases: in vivo
Abutilon theophrasti [1] = assay: Greenhouse pre-emergence (PRE) herbicidal test on ABUTH; details: Abutilon theophrasti, pre-emergence
Method in brief: (§1)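 Seeds were sown per species in pots of loamy sand with about 3.0% humus, treated pre-emergence, watered and hooded until rooted. Plants grew at 10-25° C or 20-35° C depending on species. Damage was scored 0-100 (100 = no emergence or above-ground parts destroyed) at 20 DAT.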

Brachiaria decumbens = assay: Greenhouse pre-emergence (PRE) herbicidal test on BRADC; details: Urochloa decumbens, PRE, BRADC, use rate 1 gai/ha
Excerpt: The culture containers used were plastic pots containing loamy sand with approximately 3.0% of humus as substrate. The seeds of the test plants were sown separately for each species.
For the pre-emergence treatment, the active compounds, suspended or emulsified in water, were applied directly after sowing by means of finely distributing nozzles. The containers were irrigated gently to promote germination and growth and subsequently covered with transparent plastic hoods until the plants had rooted. This cover caused uniform germination of the test plants unless this was adversely affected by the active compounds.
Depending on the species, the plants were kept at 10-25° C. and 20-35° C., respectively.
The test period extended over 2 to 4 weeks. During this time, the plants were tended and their response to the individual treatments was evaluated.
Evaluation was carried out using a scale from 0 to 100. 100 means no emergence of the plants, or complete destruction of at least the above-ground parts, and 0 means no damage or normal course of growth. A good herbicidal activity is given at values of at least 70, and very good herbicidal activity is given at values of at least 85.
If not stated differently, the respective components A and B, and if appropriate, C were formulated as a 5% by weight strength emulsion concentrate and, with addition of the amount of solvent system, introduced into the spray liquor used for applying the active compound.
As indicated application was either post emergent (POST) at the respective growth stage (GS) of the weed (BBCH code), or pre-emergent (PRE).
Assessment was 20 days after treatment (DAT).

Commelina benghalensis = assay: Greenhouse pre-emergence (PRE) herbicidal test on COMBE; details: Commelina benghalensis, pre-emergence, COMBE PRE
Method in brief: as §1

Echinochloa crus-galli = assay: Greenhouse pre-emergence (PRE) herbicidal test on ECHCG; details: PRE, ECHCG, use rate 2 gai/ha, 20 DAT
Euphorbia heterophylla = assay: Greenhouse pre-emergence (PRE) herbicidal test on EPHHL
Method in brief: as §1

Geranium pusillum [2] = assay: Greenhouse pre-emergence (PRE) herbicidal test on GERPU; details: Geranium pusillum, pre-emergence; for inhibition at 4 g/ha: use rate 4 gai/ha
Method in brief: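 Seeds sown per species in pots of loamy sand with approx. 3.0% humus; compounds suspended or emulsified in water were sprayed via fine nozzles directly after sowing. Pots were watered and hooded until rooted, held at 10-25° C. or 20-35° C. by species, and scored 0–100 (100 = no emergence/complete destruction) 20 DAT.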

Lolium multiflorum = assay: Greenhouse pre-emergence (PRE) herbicidal test on LOLMU; details: Lolium multiflorum, pre-emergence; for inhibition at 1 g/ha: use rate 1 gai/ha
Method in brief: as §1

Abutilon theophrasti [3] = assay: Greenhouse post-emergence (POST) herbicidal test on ABUTH; details: Abutilon theophrasti, post-emergence, POST, ABUTH; for inhibition at 2 g/ha: use rate 2 gai/ha, read-out: % activity
Method in brief: (§2)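 For this test, compounds formulated as a 5% by weight emulsion concentrate were diluted into spray liquor and applied post-emergence. Species were kept at 10-25° C or 20-35° C and injury was scored at 20 DAT on a 0–100 scale.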

Amaranthus retroflexus = assay: Greenhouse post-emergence (POST) herbicidal test on AMARE; details: Amaranthus retroflexus, post-emergence, POST; AMARE; use rate 1 gai/ha
Method in brief: as §2

Digitaria sanguinalis = assay: Greenhouse post-emergence (POST) herbicidal test on DIGSA; details: Digitaria sanguinalis, post-emergence; for inhibition at 2 g/ha: use rate 2 gai/ha; for inhibition at 2 g/ha / inhibition at 1 g/ha: read-out: % activity; for inhibition at 4 g/ha: use rate 4 gai/ha; for inhibition at 1 g/ha: use rate 1 gai/ha
Method in brief: as §2

Geranium pusillum [4] = assay: Greenhouse post-emergence (POST) herbicidal test on GERPU; details: Geranium pusillum, post-emergence; for inhibition at 4 g/ha: use rate 4 gai/ha
Method in brief: as §2

Question: With `COc1c(F)cc(F)c(F)c1Nc1nc(N)nc(C(C)(C)F)n1` [Compound I-1] as the compound, how does the inhibition at 2 g/ha (Abutilon theophrasti [1]; 480 h, PRE, ABUTH, use rate 2 gai/ha, 20 DAT, read-out: % activity) read?
Answer: 65%

Question: And the inhibition at 4 g/ha (Abutilon theophrasti [1]; 480 h, PRE, ABUTH, use rate 4 gai/ha, 20 DAT)?
Answer: 75%

Question: What about the inhibition at 1 g/ha (Abutilon theophrasti [1]; ABUTH PRE, use rate 1 gai/ha, read-out: % activity) of the same compound?
Answer: 75%

Question: What about the inhibition at 1 g/ha (Brachiaria decumbens) of the same compound?
Answer: 0%

Question: What about the inhibition at 1 g/ha (Commelina benghalensis; use rate 1 gai/ha) of the same compound?
Answer: 35%

Question: What about the inhibition at 4 g/ha (Commelina benghalensis; use rate 4 gai/ha) of the same compound?
Answer: 0%

Question: What about the “% activity” value (Echinochloa crus-galli) of the same compound?
Answer: 35% and 65%

Question: What about the “% activity” value (Euphorbia heterophylla; EPHHL PRE, use rate 4 gai/ha) of the same compound?
Answer: 20%

Question: And the inhibition at 16 g/ha (Euphorbia heterophylla; Euphorbia heterophylla, pre-emergence, 480 h, PRE, EPHHL, use rate 16 gai/ha, 20 DAT)?
Answer: 60%

Question: What about the inhibition at 4 g/ha (Euphorbia heterophylla; Euphorbia heterophylla, pre-emergence, EPHHL PRE, use rate 4 gai/ha) of the same compound?
Answer: 25%

Question: What about the inhibition at 1 g/ha (Euphorbia heterophylla; Euphorbia heterophylla, pre-emergence, PRE, EPPHL, use rate 1 gai/ha, read-out: % activity) of the same compound?
Answer: 0%

Question: What about the inhibition at 4 g/ha (Euphorbia heterophylla; Euphorbia heterophylla, pre-emergence, PRE, EPPHL, use rate 4 gai/ha) of the same compound?
Answer: 70%

Question: And the inhibition at 4 g/ha (Geranium pusillum [2]; 480 h, PRE, GERPU, 20 DAT)?
Answer: 50%

Question: What about the inhibition at 1 g/ha (Geranium pusillum [2]; GERPU PRE, use rate 1 gai/ha) of the same compound?
Answer: 0%

Question: What about the inhibition at 4 g/ha (Geranium pusillum [2]; GERPU PRE) of the same compound?
Answer: 20%

Question: What about the inhibition at 4 g/ha (Geranium pusillum [2]; PRE, GERPU) of the same compound?
Answer: 10%

Question: What about the inhibition at 1 g/ha (Lolium multiflorum; 480 h, PRE, LOLMU, 20 DAT) of the same compound?
Answer: 40%

Question: And the inhibition at 2 g/ha (Lolium multiflorum; 480 h, PRE, LOLMU, use rate 2 gai/ha, 20 DAT, read-out: % activity)?
Answer: 50%

Question: And the inhibition at 1 g/ha (Lolium multiflorum; LOLMU PRE)?
Answer: 20%

Question: And the inhibition at 4 g/ha (Lolium multiflorum; LOLMU PRE, use rate 4 gai/ha)?
Answer: 85%

Question: And the inhibition at 1 g/ha (Lolium multiflorum; PRE, LOLMU)?
Answer: 35%

Question: And the inhibition at 2 g/ha (Abutilon theophrasti [3]; 480 h, 20 DAT)?
Answer: 30%

Question: What about the inhibition at 4 g/ha (Abutilon theophrasti [3]; 480 h, use rate 4 gai/ha, 20 DAT) of the same compound?
Answer: 50%

Question: And the inhibition at 1 g/ha (Abutilon theophrasti [3]; use rate 1 gai/ha)?
Answer: 10%

Question: And the inhibition at 2 g/ha (Abutilon theophrasti [3])?
Answer: 10%

Question: What about the inhibition at 1 g/ha (Amaranthus retroflexus) of the same compound?
Answer: 50%

Question: And the inhibition at 2 g/ha (Digitaria sanguinalis; 480 h, POST, DIGSA, 20 DAT)?
Answer: 0%

Question: And the inhibition at 4 g/ha (Digitaria sanguinalis; 480 h, POST, DIGSA, 20 DAT)?
Answer: 30%

Question: What about the inhibition at 1 g/ha (Digitaria sanguinalis; DIGSA POST) of the same compound?
Answer: 5%

Question: And the inhibition at 4 g/ha (Digitaria sanguinalis; DIGSA POST)?
Answer: 25%

Question: And the inhibition at 1 g/ha (Digitaria sanguinalis; POST, DIGSA)?
Answer: 0%

Question: And the inhibition at 2 g/ha (Digitaria sanguinalis; POST, DIGSA)?
Answer: 10%

Question: What about the inhibition at 2 g/ha (Geranium pusillum [4]; 480 h, POST, GERPU, use rate 2 gai/ha, 20 DAT, read-out: % activity) of the same compound?
Answer: 0%

Question: And the inhibition at 4 g/ha (Geranium pusillum [4]; 480 h, POST, GERPU, 20 DAT)?
Answer: 0%

Question: And the inhibition at 8 g/ha (Geranium pusillum [4]; 480 h, POST, GERPU, use rate 8 gai/ha, 20 DAT, read-out: % activity)?
Answer: 50%

Question: And the inhibition at 16 g/ha (Geranium pusillum [4]; 480 h, POST, GERPU, use rate 16 gai/ha, 20 DAT)?
Answer: 70%

Question: And the inhibition at 4 g/ha (Geranium pusillum [4]; GERPU POST)?
Answer: 55%

Question: What about the inhibition at 1 g/ha (Geranium pusillum [4]; POST, GERPU, use rate 1 gai/ha) of the same compound?
Answer: 30%
